In patent US8632767B2, “3-[1-(3-haloalkyl)triazolyl]phenyl sulphide derivatives as acaricides and insecticides” (Bayer Intellectual Property GmbH, priority 2009, dated 2014):

How the values were obtained:
[1] = system: greenhouse red spidermite (Tetranychus urticae); test: Tetranychus test; OP resistant (TETRUR spray treatment), Example 3; assay type: in vivo; settings: foliar, 144 h, spray on bean leaf discs, after 6 days, read-out: effect (mites killed)
Procedure: Solvents: 78.0 parts by weight of acetone • • 1.5 parts by weight of dimethylformamide Emulsifier: 0.5 part by weight of alkylaryl polyglycol ether An appropriate preparation of active compound is prepared by mixing 1 part by weight of active compound with the stated amounts of solvent and emulsifier and diluting the concentrate with emulsifier-containing water to the desired concentration. Leaf discs of bean (Phaseolus vulgaris) infested by all stages of the greenhouse red spidermite (Tetranychus urticae) are sprayed with a preparation of active compound at the desired concentration. After 6 days, the effect in % is determined. Here, 100% means that all of the mites have been killed; 0% means that no mites have been killed.

[2] = log P by HPLC on reversed-phase C18, LC-MS, pH 2.7, formic acid (HCOOH); assay type: physicochemical; settings: reversed-phase C18 HPLC column; HPLC C18, pH 2.7, 0.1% aqueous formic acid/acetonitrile
Procedure: The log P values reported in the table above and in the preparation examples were determined in accordance with EEC Directive 79/831 Annex V.A8 by HPLC (High Performance Liquid Chromatography) on reversed-phase columns (C18), with the following methods: ^[b] The determination is made by LC-MS in the acid range at pH 2.7 with 0.1% aqueous formic acid and acetonitrile (containing 0.1% formic acid) as eluents; linear gradient from 10% acetonitrile to 95% acetonitrile. Calibration took place with unbranched alkan-2-ones (having 3 to 16 carbon atoms) of known log P values (log P values determined from the retention times by linear interpolation between two successive alkanones).

Boophilus microplus = Boophilus microplus test (BOOPMI injection); assay type: in vivo; settings: Rhipicephalus microplus, 168 h; 20 μg/animal, injection into abdomen, after 7 days; read-out: activity (no fertile eggs laid)
Procedure: Solvent: Dimethyl Sulphoxide An appropriate preparation of active compound is prepared by mixing 10 mg of active compound with 0.5 ml of solvent and diluting the concentrate with solvent to the desired concentration. The solution of active compound is injected into the abdomen (Boophilus microplus) and the animals are transferred into dishes and kept in a controlled atmosphere. The activity is assessed on the basis of deposition of fertile eggs. After 7 days, the effect in % is determined. Here, 100% means that none of the ticks has laid fertile eggs.

[3] = system: larvae of the mustard beetle (Phaedon cochleariae); test: Phaedon test (PHAECO spray treatment); assay type: in vivo; settings: foliar, 168 h, spray on Chinese cabbage leaf discs, after 7 days, read-out: effect (beetle larvae killed)
Procedure: Solvents: 78.0 parts by weight of acetone • • 1.5 parts by weight of dimethylformamide Emulsifier: 0.5 part by weight of alkylaryl polyglycol ether An appropriate preparation of active compound is prepared by mixing 1 part by weight of active compound with the stated amounts of solvent and emulsifier and diluting the concentrate with emulsifier-containing water to the desired concentration. Leaf discs of Chinese cabbage (Brassica pekinensis) are sprayed with a preparation of active compound at the desired concentration and, after they have dried, are populated with larvae of the mustard beetle (Phaedon cochleariae). After 7 days, the effect in % is determined. Here, 100% means that all of the beetle larvae have been killed; 0% means that no beetle larvae have been killed.

Row | Structure (SMILES) | pest or weed control at 100 g/ha [1] [%] | chromatographic logP [2] | pest or weed control at 500 g/ha [1] [%] | pest or weed control at 0.02 mg (Boophilus microplus) [%] | pest or weed control at 500 g/ha [3] [%]
1 | Cc1cc(C)c(-n2cnc(C(F)(F)C(F)(F)F)n2)cc1SCC(C)C [I-A-34] | 100 | 5.58 |  |  | 
2 | Cc1cc(C)c(-n2cnc(C(F)(F)C(F)(F)F)n2)cc1SCC(F)(F)F [I-A-28] | 100 | 4.49 |  |  | 
3 | Cc1cc(C)c(-n2cnc(C(F)F)n2)cc1SCC(F)(F)C(F)F [I-A-19] | 100 | 3.37 |  |  | 
4 | Cc1ccc(NNC(=O)C(F)F)c(F)c1 [V-5] |  | 1.66 |  |  | 
5 | N/C(=N\Nc1ccc(F)cc1)C(F)F [X-3] |  | 1.34 |  |  | 
6 | Cc1cc(C)c(-n2cnc(C(F)(F)C(F)(F)F)n2)cc1SSc1cc(-n2cnc(C(F)(F)C(F)(F)F)n2)c(C)cc1C [II-A-4] |  | 6.36 |  |  | 
7 | Cc1cc(C)c(-n2cnc(C(F)F)n2)cc1SCC(F)(F)C(F)(F)F [I-A-37] | 100 | 3.86 |  |  | 
8 | Cc1cc(C)c([S+](C)[O-])cc1-n1cnc(C(F)F)n1 (stereo not shown) [I-A-21] |  | 1.46 | 80 |  | 
9 | Cc1cc(Cl)c(-n2cnc(C(F)F)n2)cc1SSc1cc(-n2cnc(C(F)F)n2)c(Cl)cc1C [II-A-3] |  | 4.53 |  |  | 
10 | Cc1ccc(N/N=C(\N)C(F)F)c(Cl)c1 [X-1] |  | 2.5 |  |  | 
11 | Cc1cc(C)c([S+]([O-])CC(F)F)cc1-n1cnc(C(F)F)n1 (stereo not shown) [I-A-3] | 100 | 1.9 |  | 100 | 
12 | Cc1ccc(-n2cnc(C(F)F)n2)c(C)c1 [IV-A-2, 3-(Difluoromethyl)-1-(2,4-dimethylphenyl)-1H-1,2,4-triazole] |  | 2.43 | 80 |  | 
13 | Cc1cc(F)c(-n2cnc(C(F)F)n2)cc1SCC#N [I-A-24] |  | 2.31 | 100 |  | 
14 | Cc1cc(C)c(-n2cnc(C(F)F)n2)cc1SCC#N [I-A-20] |  | 2.47 | 100 |  | 
15 | Cc1ccc(-n2cnc(C(F)F)n2)cc1SSc1cc(-n2cnc(C(F)F)n2)ccc1C [II-A-7] |  | 4.19 |  |  | 
16 | Cc1ccc(-n2cnc(C(F)F)n2)c(Cl)c1 [IV-A-4] |  | 2.46 |  |  | 
17 | Cc1ccc(NNC(=O)C(F)(F)C(F)(F)F)c(C)c1 [V-2] |  | 2.91 |  |  | 
18 | CSc1cc(-n2cnc(C(F)F)n2)c(F)cc1C [I-A-38] |  | 2.93 | 100 |  | 
19 | Cc1cc(C)c(-n2cnc(C(F)(F)C(F)(F)F)n2)cc1SCC(F)F [I-A-7] | 100 | 4.22 |  | 100 | 
20 | Cc1cc(F)c(-n2cnc(C(F)F)n2)cc1SCC(F)F [I-A-6] | 100 | 2.94 |  |  | 100
21 | Cc1ccc(NNC(=O)C(F)(F)C(F)(F)Cl)c(C)c1 [V-1] |  | 2.96 | 90 |  | 
22 | Cc1ccc(-n2cnc(C(F)(F)C(F)F)n2)c(C)c1 [IV-A-6] |  | 3.08 |  |  | 
23 | Cc1ccc(-n2cnc(C(F)F)n2)c(F)c1 [IV-A-3] |  | 2.31 | 90 |  | 
24 | Cc1cc(C)c(-n2cnc(C(F)(F)C(F)F)n2)cc1SSc1cc(-n2cnc(C(F)(F)C(F)F)n2)c(C)cc1C [II-A-5] |  | 5.22 |  |  | 
25 | Cc1ccc(-n2cnc(C(F)(F)C(F)(F)Cl)n2)c(C)c1 [IV-A-1] |  | 3.88 |  |  | 

Row | Structure (SMILES) | pest or weed control at 100 g/ha [1] [%] | chromatographic logP [2] | pest or weed control at 500 g/ha [1] [%] | pest or weed control at 0.02 mg (Boophilus microplus) [%] | pest or weed control at 500 g/ha [3] [%]
26 | Cc1cc(F)c(-n2cnc(C(F)F)n2)cc1SSc1cc(-n2cnc(C(F)F)n2)c(F)cc1C [II-A-2] |  | 4.33 |  |  | 
27 | Cc1cc(C)c([S+]([O-])CC(F)(F)C(F)F)cc1-n1cnc(C(F)F)n1 (stereo not shown) [I-A-32] | 100 | 2.35 |  |  | 
28 | Cc1cc(F)c(-n2cnc(C(F)F)n2)cc1SCC1CC1 [I-A-31] | 100 | 3.81 |  |  | 100
29 | Cc1cc(C)c(-n2cnc(C(F)F)n2)cc1SCCC(F)(F)F [I-A-36] | 100 | 3.68 |  | 100 | 
30 | Cc1cc(F)c(-n2cnc(C(F)F)n2)cc1[S+]([O-])CC#N (stereo not shown) [I-A-26] |  | 1.4 | 100 |  | 
31 | Cc1ccc(N/N=C(\N)C(F)(F)C(F)(F)F)c(C)c1 [X-2] |  | 3.65 |  |  | 
32 | Cc1cc(F)c(-n2cnc(C(F)F)n2)cc1[S+](C)[O-] (stereo not shown) [I-A-22] |  | 1.37 | 80 |  | 
33 | Cc1cc(C)c([S+]([O-])CC(F)(F)C(F)(F)F)cc1-n1cnc(C(F)F)n1 (stereo not shown) [I-A-35] | 100 | 2.72 |  |  | 
34 | Cc1cc(C)c([S+]([O-])CC(F)F)cc1-n1cnc(C(F)(F)C(F)(F)F)n1 (stereo not shown) [I-A-8] | 100 | 2.95 |  | 100 | 
35 | Cc1cc(C)c([S+]([O-])CC#N)cc1-n1cnc(C(F)F)n1 (stereo not shown) [I-A-25] |  | 1.49 | 100 |  | 
36 | Cc1cc(C)c([S+]([O-])CC(C)C)cc1-n1cnc(C(F)(F)C(F)(F)F)n1 (stereo not shown) [I-A-39] | 100 | 3.46 |  | 100 | 
37 | Cc1cc(C)c(-n2cnc(C(F)F)n2)cc1SSc1cc(-n2cnc(C(F)F)n2)c(C)cc1C [II-A-1, 1,1′-[Disulphanediylbis(4,6-dimethylbenzene-3,1-diyl)]bis[3-(difluoromethyl)-1H-1,2,4-triazole]] |  | 4.45 |  |  | 
38 | Cc1cc(C)c([S+]([O-])CC2CC2)cc1-n1cnc(C(F)(F)C(F)(F)F)n1 (stereo not shown) [I-A-11] | 100 | 3.11 |  | 100 | 
39 | Cc1cc(C)c([S+]([O-])CC2CC2)cc1-n1cnc(C(F)F)n1 (stereo not shown) [I-A-33] |  | 2.05 | 100 |  | 
40 | Cc1cc(C)c([S+]([O-])CCC(F)(F)F)cc1-n1cnc(C(F)F)n1 (stereo not shown) [I-A-17] | 100 | 2.28 |  | 100 | 
41 | Cc1cc(C)c(-n2cnc(C(F)(F)C(F)(F)Cl)n2)cc1SSc1cc(-n2cnc(C(F)(F)C(F)(F)Cl)n2)c(C)cc1C [II-A-6] |  | 6.62 |  |  | 
42 | Cc1cc(F)c(-n2cnc(C(F)F)n2)cc1[S+]([O-])CC1CC1 (stereo not shown) [I-A-29] |  | 1.96 | 100 |  | 
43 | Cc1ccc(NNC(=O)C(F)F)cc1 [V-4] |  | 1.46 |  |  | 
44 | Cc1ccc(-n2cnc(C(F)F)n2)cc1 [IV-A-7] |  | 2.26 |  |  | 
45 | Cc1cc(C)c(-n2cnc(C(F)(F)C(F)(F)F)n2)cc1SCC1CC1 [I-A-14] | 100 | 5.11 |  |  | 
46 | Cc1cc(C)c(-n2cnc(C(F)F)n2)cc1SCC1CC1 [I-A-13] | 100 | 3.85 |  |  | 
47 | Cc1ccc(NNC(=O)C(F)(F)C(F)F)c(C)c1 [V-3] |  | 2.46 |  |  | 
48 | Cc1ccc(-n2cnc(C(F)(F)C(F)(F)F)n2)c(C)c1 [IV-A-5] |  | 3.78 |  |  | 
49 | CSc1cc(-n2cnc(C(F)F)n2)c(C)cc1C [I-A-18] |  | 3.01 | 100 |  | 
